Values quoted from earlier work as cited in US20070167517A1, “Stabilized derivatives of ascorbic aicd” (Tagra Biotechnologies Ltd., priority 2003, published 2007).

Assays:
[1] = in the human
[2] = standard solutions and topical formulations, RP-HPLC

| half-life [1] | SMILES | stability [2] |
| --- | --- | --- |
| about 20 days | O=C1O[C@H]([C@@H](O)CO)C(O)=C1O [ascorbic acid] | – |
| – | CCCCCCCCCCCCCCCC(=O)OC[C@H](O)[C@H]1OC(=O)C(O)=C1O [ascorbyl palmitate, 6-ascorbyl palmitate] | did not prevent hydrolysis of the molecule |
| – | O=C1O[C@H]([C@@H](O)CO)C(O)=C1OP(=O)([O-])[O-].[Mg+2] [magnesium ascorbyl phosphate, magnesium L-ascorbic acid-2-phosphate] | very stable |
